According to the supplement of paper PMC10307832:

Assays:
Assay in all cases: relative viability (nuclei count vs DMSO), 5 days (fraction); higher = more cells survive
[1] = tested on: A549
In short: (§1)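 Values are medians from duplicate plates. Each reflects relative viability, defined as the nuclei count of treated wells over that of vehicle wells. Lung cancer cell lines in 1536-well plates were pin-tool dosed one day after seeding with one drug alone or with a fixed anchor-drug dose plus five library-drug doses (not always all listed) in √10 steps, then fixed, stained and imaged at 4× after 5 days.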

[2] = tested on: ABC-1
In short: as §1

[3] = tested on: Calu-6
In short: as §1

[4] = tested on: EBC-1
In short: as §1

[5] = tested on: EKVX
In short: as §1

[6] = tested on: HCC-44
In short: as §1

[7] = tested on: IA-LM
In short: as §1

[8] = tested on: NCI-H1299
In short: as §1

[9] = tested on: NCI-H1703
In short: as §1

[10] = tested on: NCI-H1993
In short: as §1

[11] = tested on: NCI-H2085
In short: as §1

[12] = tested on: NCI-H2126
In short: as §1

[13] = tested on: RERF-LC-KJ
In short: as §1

O=c1cc(N2CCOCC2)oc2c(-c3cccc4c3sc3ccccc34)cccc12 + C[C@]1(O)C[C@@H](c2nc(-c3ccc4ccc(-c5ccccc5)nc4c3)c3c(N)nccn32)C1 [Linsitinib] (partner 1 µM)
relative viability ([1]; first compound 0.01 µM): 0.568
relative viability ([1]; first compound 0.03162 µM): 0.613
relative viability ([1]; first compound 0.1 µM): 0.577
relative viability ([1]; first compound 0.3162 µM): 0.663
relative viability ([1]; first compound 1 µM): 0.592
relative viability ([2]; first compound 0.01 µM): 0.89
relative viability ([2]; first compound 0.03162 µM): 0.717
relative viability ([2]; first compound 0.1 µM): 0.745
relative viability ([2]; first compound 0.3162 µM): 0.618
relative viability ([2]; first compound 1 µM): 0.586
relative viability ([3]; first compound 0.01 µM): 0.963
relative viability ([3]; first compound 0.03162 µM): 0.935
relative viability ([3]; first compound 0.1 µM): 1.06
relative viability ([3]; first compound 0.3162 µM): 0.944
relative viability ([3]; first compound 1 µM): 0.983
relative viability ([4]; first compound 0.01 µM): 0.973
relative viability ([4]; first compound 0.03162 µM): 0.942
relative viability ([4]; first compound 0.1 µM): 0.835
relative viability ([4]; first compound 0.3162 µM): 1.06
relative viability ([4]; first compound 1 µM): 0.993
relative viability ([5]; first compound 0.01 µM): 0.989
relative viability ([5]; first compound 0.03162 µM): 0.907
relative viability ([5]; first compound 0.1 µM): 1.19
relative viability ([5]; first compound 0.3162 µM): 0.956
relative viability ([5]; first compound 1 µM): 1.01
relative viability ([6]; first compound 0.01 µM): 0.748
relative viability ([6]; first compound 0.03162 µM): 0.661
relative viability ([6]; first compound 0.1 µM): 0.655
relative viability ([6]; first compound 0.3162 µM): 0.684
relative viability ([6]; first compound 1 µM): 0.584
relative viability ([7]; first compound 0.01 µM): 0.667
relative viability ([7]; first compound 0.03162 µM): 0.684
relative viability ([7]; first compound 0.1 µM): 0.698
relative viability ([7]; first compound 0.3162 µM): 0.506
relative viability ([7]; first compound 1 µM): 0.589
relative viability ([8]; first compound 0.01 µM): 0.972
relative viability ([8]; first compound 0.03162 µM): 0.937
relative viability ([8]; first compound 0.1 µM): 0.945
relative viability ([8]; first compound 0.3162 µM): 1.01
relative viability ([8]; first compound 1 µM): 0.995
relative viability ([9]; first compound 0.01 µM): 0.786
relative viability ([9]; first compound 0.03162 µM): 0.991
relative viability ([9]; first compound 0.1 µM): 0.684
relative viability ([9]; first compound 0.3162 µM): 0.641
relative viability ([9]; first compound 1 µM): 0.919
relative viability ([10]; first compound 0.01 µM): 0.73
relative viability ([10]; first compound 0.03162 µM): 0.785
relative viability ([10]; first compound 0.1 µM): 0.687
relative viability ([10]; first compound 0.3162 µM): 0.79
relative viability ([10]; first compound 1 µM): 0.531
relative viability ([11]; first compound 0.01 µM): 0.983
relative viability ([11]; first compound 0.03162 µM): 0.914
relative viability ([11]; first compound 0.1 µM): 0.933
relative viability ([11]; first compound 0.3162 µM): 0.889
relative viability ([11]; first compound 1 µM): 0.821
relative viability ([12]; first compound 0.01 µM): 0.698
relative viability ([12]; first compound 0.03162 µM): 0.664
relative viability ([12]; first compound 0.1 µM): 0.691
relative viability ([12]; first compound 0.3162 µM): 0.702
relative viability ([12]; first compound 1 µM): 0.725
relative viability ([13]; first compound 0.01 µM): 0.908
relative viability ([13]; first compound 0.03162 µM): 0.937
relative viability ([13]; first compound 0.1 µM): 0.914
relative viability ([13]; first compound 0.3162 µM): 0.869
relative viability ([13]; first compound 1 µM): 0.874
